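Test compounds were applied to cells in 96-well plates for 48 hours at 5 doses. Abbreviation: GI50, concentration required for 50% inhibition of growth. Definition used: TGI = concentration required for complete inhibition of growth.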
Experiments:
Assay in all cases: NCI-60 cell line screen, 48 h
A498 renal = system: A498 renal
A549 NSCLC = system: A549 NSCLC
MDA-MB-231 breast = system: MDA-MB-231 breast
MOLT-4 leukemia = system: MOLT-4 leukemia
NCI-H460 lung = system: NCI-H460 lung
SF-539 CNS = system: SF-539 CNS
HCC-2998 colon = system: HCC-2998 colon
KM12 colon = system: KM12 colon
UO-31 renal = system: UO-31 renal
IGROV1 ovarian = system: IGROV1 ovarian

| SMILES | GI50 (A498 renal) [µM] | TGI (A498 renal) [µM] | GI50 (A549 NSCLC) [µM] | TGI (A549 NSCLC) [µM] | GI50 (MDA-MB-231 breast) [µM] | TGI (MDA-MB-231 breast) [µM] | GI50 (MOLT-4 leukemia) [µM] | TGI (MOLT-4 leukemia) [µM] | GI50 (NCI-H460 lung) [µM] | TGI (NCI-H460 lung) [µM] | GI50 (SF-539 CNS) [µM] | TGI (SF-539 CNS) [µM] | GI50 (HCC-2998 colon) [µM] | TGI (HCC-2998 colon) [µM] | GI50 (KM12 colon) [µM] | TGI (KM12 colon) [µM] | GI50 (UO-31 renal) [µM] | TGI (UO-31 renal) [µM] | TGI (IGROV1 ovarian) [µM] | GI50 (IGROV1 ovarian) [µM] |
| --- | --- | --- | --- | --- | --- | --- | --- | --- | --- | --- | --- | --- | --- | --- | --- | --- | --- | --- | --- | --- |
| NS(=O)(=O)c1ccc(-n2ncc3c(Nc4ccccc4)ncnc32)cc1 | 24.3 | 92.7 | 14.3 | > 100 | 15 | 87.1 | 14.5 | 61.4 | 14.9 | > 100 | 36.2 | > 100 | 16.6 | 57.7 | 9.63 | 46.7 | 23.9 | > 100 | – | – |
| O=C(CNc1ccc2c(=S)c3ccccc3[nH]c2c1)Nc1ccccc1-c1ccccc1NC(=O)CNc1ccc2c(=S)c3ccccc3[nH]c2c1 | – | 55.6 | – | 55.5 | – | > 51.7 | – | 46.7 | – | 36.9 | – | 52 | – | 31.5 | – | 42.7 | – | 31.4 | 61 | – |
| COc1c(Cl)ccc2c(-c3nc4cc(Cl)c(F)cc4s3)cc(=O)oc12 | 17.6 | 36 | 17.9 | > 100 | 2.84 | 11.2 | 4.1 | > 100 | 33.2 | > 100 | 1.77 | 3.36 | 38.5 | > 100 | 4.06 | 22.1 | 1.44 | 3.15 | 3.97 | 1.68 |
| COc1cccc(CCC(=O)c2cc3c(N)c(C(=O)Nc4cccc(Cl)c4C)sc3nc2C)c1 | 0.248 | 2.47 | 0.687 | > 100 | 1.4 | > 78.6 | 0.77 | > 100 | 0.376 | > 75.2 | 0.408 | 2.78 | 2.18 | > 50.8 | 0.502 | > 100 | 0.86 | > 100 | > 100 | 0.628 |
| CCC1(NC(=O)c2cc(F)c(F)c(F)c2F)C(=O)NC(=O)N(C(C)C)C1=O (stereo not drawn) | 23.5 | 53 | 50.7 | > 100 | 19.3 | 48.7 | 22.6 | 78.8 | 49.7 | > 100 | > 100 | > 100 | 1.94 | 3.97 | > 100 | > 100 | > 100 | > 100 | 28.7 | 10.4 |
| NC(=O)c1ccccc1NC(=O)c1ccccc1Cl | 56.2 | > 100 | > 100 | > 100 | > 100 | > 100 | > 100 | > 100 | > 100 | > 100 | > 100 | > 100 | > 100 | > 100 | > 100 | > 100 | > 100 | > 100 | > 100 | > 100 |
| COc1cc(C2CC(=O)Nc3c2ccc2ccccc32)cc(Br)c1OC (stereo not drawn) | 0.272 | 2.29 | 0.549 | > 49.7 | 2.83 | > 46.7 | 0.45 | 12.4 | 0.368 | > 20.2 | 0.583 | 15.1 | 0.84 | > 29.9 | 0.532 | > 41.2 | 2.24 | > 34.5 | > 42.3 | 0.86 |
| O=C(N/N=C/c1ccc(Cl)cc1Cl)c1ccc2nc(-c3ccc(Cl)cc3)[nH]c2c1 | 1.74 | 4.94 | 2.16 | 4.53 | 1.85 | 3.77 | 1.55 | 4.81 | 1.56 | 3.13 | 1.7 | 3.17 | 1.82 | 3.44 | 2.03 | 4.46 | 1.58 | 2.99 | 2.98 | 1.5 |
| Clc1ccc(CNc2nccc(-c3cnn4ncccc34)n2)cc1 | 5.07 | 10.4 | 7.66 | > 25 | 8.5 | > 25 | 8.16 | > 25 | 7.92 | > 25 | 6.25 | 15.6 | 6.67 | 18.4 | 5.55 | 15.5 | 6.75 | > 19.5 | > 23.3 | 6.72 |
| O=C1c2ccccc2-c2c1c1ccc([N+](=O)[O-])cc1c(=O)n2CCCNCCO | 1.39 | 3.75 | 0.946 | 8.75 | 1.95 | 3.83 | 0.0374 | 1.4 | 0.025 | 0.343 | – | – | 0.817 | 2.13 | 0.297 | 1.76 | 0.0989 | 1.06 | 2.45 | 0.515 |
| N#C/C(=C\c1c(-c2ccccc2)[nH]c2ccccc12)C(=O)c1ccccc1 | 15.3 | > 100 | 7.55 | > 100 | 13.2 | > 100 | – | – | 4.52 | > 100 | 6.03 | 43.9 | 14.5 | > 100 | 1.96 | 19.4 | 30.5 | > 100 | 24.2 | 2.53 |
| COc1ccc(-c2ccc(-c3ccc(C(=N)N)cn3)o2)cc1Cl | 2.05 | 5.57 | 2.59 | 6.56 | 1.81 | 3.41 | – | – | 1.89 | 3.63 | 1.68 | 3.14 | 1.88 | 3.38 | – | – | 1.43 | 2.76 | 3.63 | 1.86 |
| COc1cc(NC(=O)NCc2ccco2)ccc1-c1ccc(NC(=O)NCc2ccco2)cc1OC | 1.72 | 8.25 | 1.74 | 28.3 | 1.41 | 3.98 | 20.3 | > 100 | 0.526 | > 100 | 0.663 | 2.62 | 7.97 | > 100 | 1.82 | > 100 | 4.4 | 55.8 | – | – |
